Test [1] concerns Vγ9/Vδ2 T cells. The test can be described thus: In vitro Vγ9/Vδ2 T cell activation assay (PBMCs, CD69+ CD25+ by flow cytometry). Type of test: cell-based, human. Conditions: for EC50: Homo sapiens, T-cell, read-out: EC50 (activation of Vγ9/Vδ2 T cells); for Activation of Vγ9/Vδ2 T cells at the highest concentration studied: 100 μM compared with 10 μM. The protocol: Subsequently, we studied the ability of these HMBP phosphonodiamidate ProPAgens to activate Vγ9/Vδ2 T cells and elicit their lysis of cancer cells in vitro. For this, peripheral blood mononuclear cells (PBMCs) derived from healthy donors and containing Vγ9/Vδ2 T cells were incubated with increasing concentrations of zoledronate or phosphonodiamidate HMBP ProPAgens 9a–d and 14a–d (up to 100 μM) (Fig. 4). Peripheral blood γδ T cells lack appreciable levels of surface CD69 or CD25 under steady-state conditions, but TCR stimulation upregulates both T cell activation markers.[6] Thus, PAg-responsive Vγ9/Vδ2 T cells were then assessed for the upregulation of CD69 and CD25.
Fig. 4 In vitro phosphonodiamidate ProPAgen-mediated activation of Vγ9/Vδ2 T cells, following overnight incubation with zoledronate, and HMBP ProPAgens 9a–d and 14a–d. Levels of activation are represented as % of Vγ9/Vδ2 T cells that are CD69+ CD25+. Data is shown as mean ± SE (n = 4). (A) Activation of Vγ9/Vδ2 stimulated by phosphonodiamidate ProPAgens 9a–d. (B) Activation of Vγ9/Vδ2 stimulated by ProPAgens 14a–d. (C) Activation of Vγ9Vδ2 stimulated by zoledronate (Zol). (D) EC50 values were calculated using GraphPad Prism v9 based on the results of the activation assay.
As for the activation of Vγ9/Vδ2 T cells by the phosphonodiamidate ProPAgens (9a–d and 14a–d), these were initially tested using a concentration range from […] to 100 μM (Fig. 4A and B).
Healthy donor peripheral blood mononuclear cells (PBMCs) were harvested as previously described.[20] To assess the activation of Vγ9/Vδ2 T cells, PBMCs were seeded into U-bottom tissue culture-treated 96-well plates at a cell density of 500 000 cells per well. The cells were incubated with medium-only (control), in the presence of zoledronate at 10 pM to 100 μM, and with HMBP ProPAgens initially at 10 pM to 100 μM, and then at 1 aM to 100 μM for compounds 9d and 14d in a separate experiment. The cells were incubated at 37 °C/5% CO2 overnight, and stained by flow cytometry for the following markers: viability (Zombie Aqua 1 : 400), CD3 (BV421 1 : 100), CD8 (BV650 1 : 200), Vγ9 (PEcy5 1 : 400), Vδ2 (APC 1 : 200), CD69 (PE 1 : 25), CD25 (FITC 1 : 100). The samples were acquired via LSRFortessa X20 (BD Biosciences), and the data obtained were analyzed using FlowJo v10 and GraphPad Prism v9 software.

Test [2] deals with Vγ9/Vδ2 T cells. Particulars: read-out: EC50 (activator of Vγ9/Vδ2 T cells), cited from earlier work.
A further test deals with T24 cells. Nature of the test: Europium-based (DELFIA) cytotoxicity assay: Vγ9/Vδ2 T cell killing of drug-treated T24 cells. The arrangement: species or system human. Particulars: 10 nM ProPAgen for 2 h versus 10 μM zoledronate; effector : target 80 : 1, 1 h. The protocol: Encouraged by the potency and specificity of our HMBP phosphonodiamidate ProPAgens, especially 9d and 14d, we subsequently studied their ability to sensitize the urinary bladder carcinoma cell line T24 for targeted killing by in vitro expanded Vγ9/Vδ2 T cells (Fig. 5). In brief, T24 cells were incubated in PBS containing 10 μM zoledronate or the indicated HMBP phosphonodiamidate ProPAgens for a period of 2 h. A positive control for cell death (target cells incubated with 10% v/v DELFIA lysis buffer) and media-only treated control (no drug) was also included. The cells were then washed and cocultured with ex vivo expanded Vγ9/Vδ2 T cells for 1 h at 80 : 1 effector : target ratio, and the level of killing of T24 cells was then measured via time-resolved fluorescence.
Fig. 5 Cytotoxicity of Vγ9/Vδ2 T cells toward the phosphonodiamidate ProPAgen-treated T24 cells. % killing of T24 cells was calculated with this formula: [(experimental release − spontaneous release)/(maximal release − spontaneous release)] × 100. […]
To assess the level of killing of drug-treated and untreated tumour cells, a Europium-based cytotoxicity assay was performed (DELFIA, Perkin Elmer) as described elsewhere.[47] […] Time-resolved fluorescence was then measured using a PHERAstar microplate reader (BMG Labtech). […] The data were processed and analysed using Microsoft Excel and GraphPad Prism v9 software.

Setting [3] is: Fig. 1A legend, no reference given.

The structures appear in SMILES notation. Like-named read-outs stand apart in the source and are kept apart here.

For the molecule `C/C(=C\CCP(=O)(N[C@@H](C)C(=O)OC(C)(C)C)N[C@@H](C)C(=O)OC(C)(C)C)CO` [14c, Di-tert-butyl 2,2′-((((E)-5-hydroxy-4-methylpent-3-en-1-yl)phosphoryl)bis(azanediyl))(2S,2′S)-dipropionate], the EC50 in the test with Vγ9/Vδ2 T cells [1] was found to be 6100 nM. With `O=P(O)(O)C(O)(Cn1ccnc1)P(=O)(O)O` [Zoledronate, zoledronate], the EC50 in the test with Vγ9/Vδ2 T cells [2] (setting [3]) was 3 to 3000 nM. On to `C/C(=C\COP(=O)(O)OP(=O)(O)O)CO` [HMBPP, (E)-4-hydroxy-3-methyl-but-2-enyl pyrophosphate], for which the EC50 in the test with Vγ9/Vδ2 T cells [2] (setting [3]) is 0.06 to 0.5 nM. Turning to `COC(=O)[C@H](C)NP(=O)(N[C@@H](C)C(=O)OC)C(F)(F)C/C=C(\C)CO` [9a, Dimethyl 2,2′-((((E)-1,1-difluoro-5-hydroxy-4-methylpent-3-en-1-yl)phosphoryl)bis(azanediyl))(2S,2′S)-dipropionate], in the test on Vγ9/Vδ2 T cells [1], the EC50 is 191 nM. `O=P(O)(O)C(O)(Cc1cccnc1)P(=O)(O)O` [risedronate]: the EC50 in the test with Vγ9/Vδ2 T cells [2] (setting [3]) is 80 to 5000 nM. In the case of `C/C(=C\CC(F)(F)P(=O)(N[C@@H](C)C(=O)OCc1ccccc1)N[C@@H](C)C(=O)OCc1ccccc1)CO` [9d, Dibenzyl 2,2′-((((E)-1,1-difluoro-5-hydroxy-4-methylpent-3-en-1-yl)phosphoryl)bis(azanediyl))(2S,2′S)-dipropionate], the “sensitizing effect for killing of T24 cells by Vγ9/Vδ2 T cells” value with T24 cells is given as “much more potent”. Moreover, the “Activation of Vγ9/Vδ2 T cells at the highest concentration studied” value with Vγ9/Vδ2 T cells [1] is on record as “less than that achieved with 10 μM”.

In the case of `C/C(=C\CCP(=O)(N[C@@H](C)C(=O)OCc1ccccc1)N[C@@H](C)C(=O)OCc1ccccc1)CO` [14d, Dibenzyl 2,2′-((((E)-5-hydroxy-4-methylpent-3-en-1-yl)phosphoryl)bis(azanediyl))(2S,2′S)-dipropionate], in the test with T24 cells, the “sensitizing effect for killing of T24 cells by Vγ9/Vδ2 T cells” value is listed as “much more potent”. Moreover, in the test on Vγ9/Vδ2 T cells [1], the “Activation of Vγ9/Vδ2 T cells at the highest concentration studied” value was “less than that achieved with 10 μM” and the EC50 was 27 nM. For `C/C(=C\CC(F)(F)P(=O)(N[C@@H](C)C(=O)OC(C)(C)C)N[C@@H](C)C(=O)OC(C)(C)C)CO` [9c, Di-tert-butyl 2,2′-((((E)-1,1-difluoro-5-hydroxy-4-methylpent-3-en-1-yl)phosphoryl)bis(azanediyl))(2S,2′S)-dipropionate], the EC50 with Vγ9/Vδ2 T cells [1] was found to be 1500 nM. In the case of `C/C(=C\CCP(=O)(N[C@@H](C)C(=O)OC(C)C)N[C@@H](C)C(=O)OC(C)C)CO` [14b, Diisopropyl 2,2′-((((E)-5-hydroxy-4-methylpent-3-en-1-yl)phosphoryl)bis(azanediyl))(2S,2′S)-dipropionate], the EC50 in the test with Vγ9/Vδ2 T cells [1] was determined as 87 nM. As to `C=C(C)CCOP(=O)(O)OP(=O)(O)O` [IPP, isopentenyl pyrophosphate], in the test on Vγ9/Vδ2 T cells [2] (setting [3]), the EC50 is 1000 to 10000 nM. Turning to `C/C(=C\COP(=O)(O)O)CO` [HMBP, (E)-4-Hydroxy-3-methylbut-2-enyl monophosphate], in the test on Vγ9/Vδ2 T cells [2], the EC50 was 4000 nM.

The record behind these values is article PMC11253855, “Phosphonodiamidate prodrugs of phosphoantigens (ProPAgens) exhibit potent Vγ9/Vδ2 T cell activation and eradication of cancer cells” (RSC Medicinal Chemistry, 2024).
